The conditions of series [1]: from CCOC(=O)c1c(CCCOc2cc(S)cc3ccccc23)c2ccc(Cl)c(-c3c(CSCc4cc(CBr)n(C)n4)nn4c3CCC4)c2n1C; thioether bond; K2CO3; acetonitrile; 3.14 mM; 25.0 °C; 3.0 h; 6 steps.
Series [2] concerns NCI-H929 cells. The series is described as follows: Cell viability assay (NCI-H929 cells), CCK-8. The note with it: Homo sapiens, NCI-H929, 24 h, WST, 5% FBS. Type of series: cell-based.
Series [3] concerns the target T1, Mcl-1 protein (residues 171-323) (Homo sapiens, UniProt Q07820).
T1 construct: Tag-free Mcl-1 protein (residues 171-323) was used in the FP assay
The series is described as follows: Inhibition of Mcl-1 by fluorescence polarization (FP) competitive binding assay. The note with it: FAM-Bid tracer 2 nM, Mcl-1 20 nM, 30 min. An outline of the steps:
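FAM-Bid peptide (2 nM) was competed against Mcl-1 (20 nM) in PBS with 0.01% BGG and 0.01% Triton X-100 at 5% final DMSO. Anisotropy was read as mP over a 10-point dilution series. IC50 came from a sigmoidal dose-response nonlinear fit.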

Series [4] concerns OPM-2 cells. Nature of the series: Cell viability assay (OPM-2 cells), CCK-8. Type of series: cell-based. The note with it: Homo sapiens, OPM-2, 24 h, WST, 5% FBS, read-out: OPM2 (WST, 5% FBS). An outline of the steps: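 OPM-2 cells from DSMZ were tested for viability with a Cell Counting Kit-8 (CCK-8) assay. Serially diluted compound (100 μL) was added to 96-well plates, then 100 μL of cell suspension (20000 cells/well) was added, and plates were incubated at 37° C. under 5% CO2 for 24 hours. After 20 μL CCK-8 solution and 4 hours of incubation, absorbance was read at 450 nm. Readings were normalized to vehicle and IC50 was fitted by nonlinear regression in GraphPad Prism 6.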

A short description of series [5]: Kinetic solubility assay. Type of series: physicochemical. The note with it: PBS buffer pH 6.5, aqueous buffer, thermodynamic from solid; pH 6.5 PBS buffer, HPLC; read-out: Solubility (pH 6.5, μg/mL). The protocol:
Representative Compounds of the Disclosure were tested in a solubility assay with pH 6.5 PBS buffer. PBS buffer was prepared by dissolving 4.86 g of potassium dihydrogen phosphate and 5.09 g of disodium hydrogen phosphate dodecahydrate in 1 L of ultrapure water to have final pH value of 6.5. In the solubility assay, 0.5 mg of test sample was dissolved in 1 mL of methanol and the stock solution was transferred into 2 mL EP tube, and evaporated at 50° C. for 3 h. To the tube was added 1 mL of PBS buffer and the mixture was stirred and shaken for 1-2 h. The solution was allowed to stand overnight and then filtered before HPLC analysis. Another 1.5 mg of the sample was dissolved in 3 mL of methanol to prepare a calibration curve with a series of concentration range of 5-500 μM. The solubility of each sample was determined by the measured peak area in HPLC.

SMILES strings stand for the structures. Converted amounts (≈) assume the structure as drawn.

T1 sequence (Q07820 171-323): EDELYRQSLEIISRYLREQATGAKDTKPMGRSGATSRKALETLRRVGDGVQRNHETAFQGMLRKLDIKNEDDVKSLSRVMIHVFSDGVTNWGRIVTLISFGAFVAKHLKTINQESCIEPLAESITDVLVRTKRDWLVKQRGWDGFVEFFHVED

In series [1], `Cn1nc2cc1CSc1cc(c3ccccc3c1)OCCCc1c(C(=O)O)n(C)c3c(c(Cl)ccc13)-c1c(nn3c1CCC3)CSC2` showed a ring closure, yield of all isomers of 3%.
With `Cn1nc2cc1CSc1cc(c3ccccc3c1)OCCCc1c(C(=O)O)n(C)c3c(c(Cl)ccc13)-c1c(nn3c1CSCC3)CSC2` [compound 21, (Z)-1^6-chloro-1^1,6^1-dimethyl-2^6,2^7-dihydro-1^1H,2^4H,6^1H-10-oxa-4,8-dithia-2(3,2)-pyrazolo[5,1-c][1,4]thiazina-1(7,3)-indola-6(3,5)-pyrazola-9(3,1)-naphthalenacyclotridecaphane-1^2-carboxylic acid], the IC50 in series [2] turned out to be 116 nM; in series [3] it was 15.8 nM; in series [4], 291 nM. The solubility in series [5] came out at 3 µg/mL (≈ 4.19 µM).
The like results for `Cn1nc2cc1CSc1cc(c3ccccc3c1)OCCCc1c(C(=O)O)n(C)c3c(c(Cl)ccc13)-c1c(nn3c1CCCCC3)CSC2` [compound 23, (Z)-1^6-chloro-1^1,6^1-dimethyl-2^5,2^6,2^7,2^8-tetrahydro-1^1H,2^4H,6^1H-10-oxa-4,8-dithia-2(3,2)-pyrazolo[1,5-a]azepina-1(7,3)-indola-6(3,5)-pyrazola-9(3,1)-naphthalenacyclotridecaphane-1^2-carboxylic acid] were, in that order, 100 nM, 10 nM, 195 nM and less than 1 µg/mL.
On to `Cn1nc2c(Cl)c1CSc1cc(c3ccccc3c1)OCCCc1c(C(=O)O)n(C)c3c(c(Cl)ccc13)-c1c(nn3c1CCCC3)CSC2` [compound 24, (E)-1^6,6^4-dichloro-1^1,6^1-dimethyl-2^4,2^5,2^6,2^7-tetrahydro-1^1H,6^1H-10-oxa-4,8-dithia-2(3,2)-pyrazolo[1,5-a]pyridina-1(7,3)-indola-6(3,5)-pyrazola-9(3,1)-naphthalenacyclotridecaphane-1^2-carboxylic acid], for which the IC50 in series [2] amounted to 1640 nM; in series [3], 14.3 nM; in series [4] it was 4860 nM. In addition, the solubility in series [5] was less than 1 µg/mL.
For `Cn1nc2cc1CSc1cc(c3ccc(F)cc3c1)OCCCc1c(C(=O)O)n(C)c3c(c(Cl)ccc13)-c1c(nn3c1CCCC3)CSC2` [compound 26, (Z)-1^6-chloro-96-fluoro-1^1,6^1-dimethyl-2^4,2^5,2^6,2^7-tetrahydro-1^1H,6^1H-10-oxa-4,8-dithia-2(3,2)-pyrazolo[1,5-a]pyridina-1(7,3)-indola-6(3,5)-pyrazola-9(3,1)-naphthalenacyclotridecaphane-1^2-carboxylic acid], in that order: 44 nM, 30.9 nM, 133 nM and 1 µg/mL (≈ 1.4 µM).
The like results for `Cn1nc2cc1CSc1cc(c3ccc(F)cc3c1)OCCCc1c(C(=O)O)n(C)c3c(c(Cl)ccc13)-c1c(nn3c1CCC3)CSC2` [compound 27, (Z)-1^6-chloro-9^6-fluoro-1^1,6^1-dimethyl-2^5,2^6-dihydro-1^1H,2^4H,6^1H-10-oxa-4,8-dithia-1(7,3)-indola-2(3,2)-pyrrolo[1,2-b]pyrazola-6(3,5)-pyrazola-9(3,1)-naphthalenacyclotridecaphane-1^2-carboxylic acid] were, in that order, 51 nM, 24.9 nM, 153 nM and 52 µg/mL (≈ 74 µM).
The like results for `Cc1cc2ccc1CSc1cc(c3ccc(F)cc3c1)OCCCc1c(C(=O)O)n(C)c3c(c(Cl)ccc13)-c1c(nn3c1CCC3)CSC2` [compound 30, 1^6-chloro-9^6-fluoro-1^1,6^3-dimethyl-2^5,2^6-dihydro-1^1H,2^4H-10-oxa-4,8-dithia-1(7,3)-indola-2(3,2)-pyrrolo[1,2-b]pyrazola-9(3,1)-naphthalena-6(1,4)-benzenacyclotridecaphane-1^2-carboxylic acid] were, in that order, 196 nM, 14.2 nM, 255 nM and less than 1 µg/mL.
Regarding `Cc1c2c(nn1C)CN(S(C)(=O)=O)Cc1cc(n(C)n1)CSc1cc(c3ccccc3c1)OCCCc1c(C(=O)O)n(C)c3c-2c(Cl)ccc13` [compound 36, (Z)-1^6-chloro-1^1,2^1,2^5,6^1-tetramethyl-4-(methylsulfonyl)-1^1H,2^1H,6^1H-10-oxa-8-thia-4-aza-1(7,3)-indola-2(4,3),6(3,5)-dipyrazola-9(3,1)-naphthalenacyclotridecaphane-1^2-carboxylic acid], the values for the IC50 in series [2], in series [3] and in series [4] were 71 nM, 19 nM and 317 nM, respectively. The solubility in series [5] was 16 µg/mL (≈ 21.8 µM).
Regarding `Cc1oc2nc1CSc1cc(c3ccccc3c1)OCCCc1c(C(=O)O)n(C)c3c(c(Cl)ccc13)-c1c(nn3c1OCC3)CSC2` [compound 38, (Z)-1^6-chloro-1^1,6^5-dimethyl-2^2,2^3-dihydro-1^1H-10-oxa-4,8-dithia-2(7,6)-pyrazolo[5,1-b]oxazola-6(2,4)-oxazola-1(7,3)-indola-9(3,1)-naphthalenacyclotridecaphane-1^2-carboxylic acid], the IC50 turned out to be 5990 nM in series [2], 85 nM in series [3] and 5880 nM in series [4]. Moreover, the solubility in series [5] worked out at 127 µg/mL (≈ 185 µM).
For `Cn1nc2cc1CSc1cc(c3ccc(F)cc3c1)OCCCc1c(C(=O)O)n(C)c3c(c(Cl)ccc13)-c1c(nn3c1CCC3)CN(S(C)(=O)=O)C2` [compound 44, (Z)-1^6-chloro-9^6-fluoro-1^1,6^1-dimethyl-4-(methylsulfonyl)-2^5,2^6-dihydro-1^1H,2^4H,6^1H-10-oxa-8-thia-4-aza-1(7,3)-indola-2(3,2)-pyrrolo[1,2-b]pyrazola-6(3,5)-pyrazola-9(3,1)-naphthalenacyclotridecaphane-1^2-carboxylic acid], in that order: 156 nM, 15 nM, 506 nM and greater than 400 µg/mL.
For `Cc1c2c(nn1C)CN(C1CC1)Cc1cc(n(C)n1)CSc1cc(c3ccccc3c1)OCCCc1c(C(=O)O)n(C)c3c-2c(Cl)ccc13` [compound 49, (Z)-1^6-chloro-4-cyclopropyl-1^1,2^1,2^5,6^1-tetramethyl-1^1H,2^1H,6^1H-10-oxa-8-thia-4-aza-1(7,3)-indola-2(4,3),6(3,5)-dipyrazola-9(3,1)-naphthalenacyclotridecaphane-1^2-carboxylic acid], in that order: 55 nM, 21 nM, 167 nM and 28 µg/mL (≈ 40.3 µM).

For the origin of these results see patent US12319703B2, “Macrocyclic fused pyrazoles as Mcl-1 inhibitors” (ASCENTAGE PHARMA (SUZHOU) CO., LTD., priority 2019, dated 2025).
